According to patent publication US10899754B2, “Modulators of indoleamine 2,3-dioxygenase” (GLAXOSMITHKLINE INTELLECTUAL PROPERTY DEVELOPMENT LIMITED, priority 2016, dated 2021):

Key:
Format in all cases: cell-based
[1] = test system: human peripheral blood mononuclear cells (PBMC); assay: PBMC cytotoxicity assay (CellTiter-Glo); conditions: 2 days, pCC50
How it was run: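 Human PBMC (50,000 cells/well) stimulated with IFN-γ 100 ng/ml and LPS 50 ng/ml were exposed to 11-point 3-fold compound dilutions for 2 days at 37 °C, 5% CO2. Viability read by CellTiter-Glo ATP luminescence and normalized to no-cell and stimulated-DMSO controls. XC50 derived by four-parameter fit.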

[2] = biological target: T1, indoleamine 2, 3-dioxygenase (IDO1) (Homo sapiens, UniProt P14902); assay: IDO1 HeLa RapidFire MS assay (kynurenine detection by mass spectrometry); parameters: to induce the expression of indoleamine 2, 3-dioxygenase (IDO1); conditions: HeLa cells, pIC50, read-out: IDO1_HELA_PXC50 (converted)
How it was run: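 Compound potency reported as pIC50 from kynurenine/internal-standard ratio (RapidFire MS) in supernatant of IFN-γ-induced (10 nM) HeLa cells, 5,000 per well, after 2 days' treatment with 11-point dilutions. Cytotoxicity in the same format by luminescent ATP detection, reported as pCC50.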

[3] = biological target: T1, indoleamine 2, 3-dioxygenase (IDO1); assay: IDO1 PBMC RapidFire MS assay (kynurenine detection by mass spectrometry); parameters: to induce the expression of indoleamine 2, 3-dioxygenase (IDO1); host or cells: human PBMC stimulated with IFN-gamma and LPS; conditions: human PBMC stimulated with IFN-γ and LPS, 2 days, pIC50, read-out: PBMC PXC50 (converted)
How it was run: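 PBMCs (50,000 cells/well) stimulated with IFN-γ 100 ng/ml plus LPS 50 ng/ml, treated with 11-point 3-fold compound series for 2 days at 37° C. Supernatant kynurenine measured by RapidFire MS, normalised to internal standard; parallel cytotoxicity by CellTiter-Glo luminescence; curves fitted for XC50.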

[4] = test system: human epithelial HeLa cells; assay: HeLa cytotoxicity assay (CellTiter-Glo); conditions: pCC50
How it was run: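 HeLa cells (5,000/well) stimulated with 10 nM IFN-γ, exposed to 11-point 3-fold compound dilutions for 2 days at 37 °C; viability by CellTiter-Glo ATP luminescence. Normalized to cell-free (100% cytotoxicity) and stimulated-cell DMSO (0%) controls; four-parameter fit gives pCC50.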

T1 sequence (P14902 whole entry): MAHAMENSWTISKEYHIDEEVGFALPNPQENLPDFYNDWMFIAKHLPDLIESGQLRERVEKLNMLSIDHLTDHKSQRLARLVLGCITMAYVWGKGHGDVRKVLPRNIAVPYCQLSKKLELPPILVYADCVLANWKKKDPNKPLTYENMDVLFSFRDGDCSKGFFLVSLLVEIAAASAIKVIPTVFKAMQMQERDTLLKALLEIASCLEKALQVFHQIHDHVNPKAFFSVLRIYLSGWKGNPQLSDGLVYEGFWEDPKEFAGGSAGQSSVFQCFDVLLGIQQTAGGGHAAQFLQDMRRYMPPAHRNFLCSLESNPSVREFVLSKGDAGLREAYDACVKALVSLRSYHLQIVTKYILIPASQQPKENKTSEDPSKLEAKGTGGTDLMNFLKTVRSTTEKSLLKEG

IC50 [2] [nM] | IC50 [3] [nM] | SMILES | PBMC TOX PXC50 [1] | HELA_IDO1_TOX_PXC50 [4]
316 | 31.6 | CC(C)CN(c1ccc(-c2cccnc2C(=O)O)cc1Nc1nc(C(F)(F)F)ns1)C1CCOCC1 [example 269, 3-{4-[(2-methylpropyl)(oxan-4-yl)amino]-3-{[3-(trifluoromethyl)-1,2,4-thiadiazol-5-yl]amino}phenyl}pyridine-2-carboxylic acid] | <5 | <5
794 | 200 | COCc1nnc(Nc2cc([C@H](C)CC(=O)O)ccc2N(CC(C)C)C2CCOCC2)[nH]1 [example 213, (3R)-3-(3-{[5-(methoxymethyl)-4H-1,2,4-triazol-3-yl]amino}-4-[(2-methylpropyl)(oxan-4-yl)amino]phenyl)butanoic acid] | <5 | <5
50.1 | 39.8 | CC(C)CN(c1ccc([C@H](C)CC(=O)O)cc1Nc1nnc(C2CC2)[nH]1)C1CCOCC1 [example 210, (3R)-3-{3-[(5-cyclopropyl-4H-1,2,4-triazol-3-yl)amino]-4-[(2-methylpropyl)(oxan-4-yl)amino]phenyl}butanoic acid] | <5 | <5
12.6 | 2.51 | CC[C@H](CC(=O)O)c1ccc(N(CC(C)C)CC(C)C)c(Nc2nc(Cl)ns2)c1 [Example 40, (R)-3-(3-((3-chloro-1,2,4-thiadiazol-5-yl)amino)-4-(diisobutylmino)phenyl)pentanoic Acid] | <5 | <5
501 | 316 | CC(C)CN(c1ccc(C(C)OCC(=O)O)cc1Nc1nc2ccccc2o1)C1CCCCC1 (stereo not shown) [example 170, 2-(1-{3-[(1,3-benzoxazol-2-yl)amino]-4-[cyclohexyl(2-methylpropyl)amino]phenyl}ethoxy)acetic acid] | <5 | <5
5.01 | 2.51 | CC(C)CN(c1ccc([C@H](C)CC(=O)O)cc1Nc1cnc(C#N)cn1)C1CCOCC1 [Example 19, (R)-3-(3-((5-cyanopyrazin-2-yl)amino)-4-(isobutyl(tetrahydro-2H-pyran-4-yl)amino)phenyl)butanoic Acid] | <5 | <5
7.94 | 3.16 | COc1ncc(Nc2cc([C@H](C)CC(=O)O)ccc2N(CC(C)C)C2CCOCC2)cn1 [Example 15, (R)-3-(4-(isobutyl(tetrahydro-2H-pyran-4-yl)amino)-3-((2-methoxypyrimidin-5-yl)amino)phenyl)butanoic Acid] | <5 | <5
2.51 | 1.58 | CC(C)CN(c1ccc([C@H](C)Cc2nnn[nH]2)cc1Nc1nc(C(F)(F)F)ns1)C1CCCCC1 [Example 101, (R)-4-(1-(1H-tetrazol-5-yl)propan-2-yl)-N^1-cyclohexyl-N^1-isobutyl-N^2-(3-(trifluoromethyl)-1,2,4-thiadiazol-5-yl)benzene-1,2-diamine] | <5 | <5
1000 | 631 | CC(C)CN(c1ccc(C(C)CC(=O)O)cc1NC1CCC(C)CC1)C1CCCCC1 (stereo not shown) [example 158, 3-{4-[cyclohexyl(2-methylpropyl)amino]-3-[(4-methylcyclohexyl)ami-no]phenyl}butanoic acid] | <5 | <5
3.16 | 2.51 | CC(C)CN(c1ccc(C2CC2C(=O)O)cc1Nc1nc(C(F)(F)F)ns1)C1CCCCC1 (single isomer, unassigned) [Example 104, 2-(4-(cyclohexyl(isobutyl)amino)-3-((3-(trifluoromethyl)-1,2,4-thiadiazol-5-yl)amino)phenyl)cyclopropanecarboxylic Acid] | <5 | <5
2 | 0.794 | CC[C@H](CC(=O)O)c1ccc(N(CC(C)C)C2CCCCC2)c(Nc2nc(C(F)(F)F)ns2)c1 [Example 38, (R)-3-(4-(cyclohexyl(isobutyl)amino)-3-((3-(trifluoromethyl)-1,2,4-thiadiazol-5-yl)amino)phenyl)pentanoic Acid] | <5 | <5
10 | 0.316 | CC[C@@H](CC(=O)O)c1ccc(N(CC(C)C)C2CCCCC2)c(Nc2nc(Cl)ns2)c1 [example 166, (3S)-3-{3-[(3-chloro-1,2,4-thiadiazol-5-yl)amino]-4-[cyclohexyl(2-methylpropyl)amino]phenyl}pentanoic acid] | 5.1 | <5
12.6 | 12.6 | COCCc1nnc(Nc2cc([C@H](C)CC(=O)O)ccc2N(CC(C)C)C2CCCCC2)[nH]1 [example 214, (3R)-3-{4-[cyclohexyl(2-methylpropyl)amino]-3-{[5-(2-methoxyethyl)-4H-1,2,4-triazol-3-yl]amino}phenyl}butanoic acid] | <5 | <5
31.6 | 20 | CC(C)CN(c1ccc(C(C)CC(=O)O)cc1NC1=N[C@@H](C(F)(F)F)CS1)C1CCCCC1 (stereo partly drawn) [example 154, 3-{4-[cyclohexyl(2-methylpropyl)amino]-3-{[(4S)-4-(trifluoromethyl)-4,5-dihydro-1,3-thiazol-2-yl]amino}phenyl}butanoic acid] | <5 | <5
7.94 | 1.58 | CC(C)CN(c1ccc(C(C)(C)CC(=O)O)cc1Nc1nc(Cl)ns1)C1CCCCC1 [Example 2, 3-(3-((3-chloro-1,2,4-thiadiazol-5-yl)amino)-4-(cyclohexyl(isobutyl)amino)phenyl)-3-methylbutanoic Acid] | <5 | <5
7.94 | 3.98 | CC(C)CN(CC(C)C)c1ccc([C@H](C)CC(=O)O)cc1Nc1nnc(C(F)(F)F)s1 [Example 87, (R)-3-(4-(diisobutylamino)-3-((5-(trifluoromethyl)-1,3,4-thiadiazol-2-yl)amino)phenyl)butanoic Acid] | <5 | <5
794 | 1580 | CC(C)CN(c1ccc(C(C)CC(=O)O)cc1NC1=NC(=O)[C@H](c2ccccc2)N1)C1CCCCC1 (stereo partly drawn) [example 165, 3-{4-[cyclohexyl(2-methylpropyl)amino]-3-{[(5S)-4-oxo-5-phenyl-4,5-dihydro-1H-imidazol-2-yl]amino}phenyl}butanoic acid] | <5 | <5
1260 | 501 | CC(C)CN(c1ccc(-c2cnccc2C(=O)O)cc1Nc1nc2ccccc2o1)C1CCCCC1 [example 289, 3-{3-[(1,3-benzoxazol-2-yl)amino]-4-[cyclohexyl(2-methylpropyl)amino]phenyl}pyridine-4-carboxylic acid] | <5 | <5
5.01 | 1 | CC(C)CN(c1ccc(-c2ccccc2C(=O)O)cc1Nc1nc(C(F)(F)F)ns1)C1CCN(c2nc(C(F)(F)F)ns2)CC1 [Example 92, 4′-(isobutyl(1-(3-(trifluoromethyl)-1,2,4-thiadiazol-5-yl)piperidin-4-yl)amino)-3′-((3-(trifluoromethyl)-1,2,4-thiadiazol-5-yl)amino)-[1,1′-biphenyl]-2-carboxylic Acid] | 6.1 | <5
31.6 | 10 | CC(C)CN(CC(C)C)c1ccc([C@H](C)CC(=O)NS(C)(=O)=O)cc1Nc1nc(C(F)(F)F)ns1 [Example 109, (R)-3-(4-(diisobutylamino)-3-((3-(trifluoromethyl)-1,2,4-thiadiazol-5-yl)amino)phenyl)-N-(methylsulfonyl)butanamide] | <5 | <5
126 | 50.1 | CC(C)CN(c1ccc(-c2cccnc2C(=O)O)cc1Nc1nc2ccccc2o1)C1CCCCC1 [example 290, 3-{3-[(1,3-benzoxazol-2-yl)amino]-4-[cyclohexyl(2-methylpropyl)amino]phenyl}pyridine-2-carboxylic acid] | <5 | <5
10 | 6.31 | CC(C)CN(c1ccc([C@H](C)CC(=O)O)cc1Nc1nc(C(F)(F)F)ns1)[C@H]1CC[C@@H](O)CC1 [Example 59, (R)-3-(4-(((1s,4S)-4-hydroxycyclohexyl) (isobutyl)amino)-3-((3-(trifluoromethyl)-1,2,4-thiadiazol-5-yl)amino)phenyl)butanoic Acid] | <5 | <5
